This is an account of results in patent US8765730B2 (Hoffmann-La Roche Inc, priority 2010, dated 2014).

This test addresses T1, human GPBAR1 receptor (Homo sapiens, UniProt Q8TDU6).
T1 construct: expressed in transfected cells
T1 sequence (Q8TDU6 1-330): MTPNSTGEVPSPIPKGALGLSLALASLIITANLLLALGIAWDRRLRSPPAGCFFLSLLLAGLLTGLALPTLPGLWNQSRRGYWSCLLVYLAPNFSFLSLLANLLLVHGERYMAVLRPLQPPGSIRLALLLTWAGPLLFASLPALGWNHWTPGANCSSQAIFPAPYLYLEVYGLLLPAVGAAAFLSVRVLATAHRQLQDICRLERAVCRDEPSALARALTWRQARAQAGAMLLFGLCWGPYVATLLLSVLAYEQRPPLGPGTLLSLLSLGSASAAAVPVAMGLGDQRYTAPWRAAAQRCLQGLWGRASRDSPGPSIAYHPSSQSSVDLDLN
Briefly: functional cAMP assay in CHO-dhfr(minus) cells expressing human GPBAR1 receptors. The settings on record: human EC50, functional cAMP assay, 30 min at 30° C. The test is classed as cell-based. In outline:
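Agonist cAMP read-out: stable GPBAR1 CHO-dhfr− clone, 30 min compound exposure at 30° C following 30 min IBMX (1 mM) preincubation in Krebs Ringer bicarbonate. Time-resolved energy-transfer detection gives EC50; parental CHO cells serve as counter-screen.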
Background: cAMP levels reflect the balance of adenylyl cyclase and phosphodiesterase activity.
What is called EC50 is the concentration needed to bring the measured effect to its halfway point. Low readings indicate an effect from little substance, high ones a need for much substance. Take `Cc1ccccc1[C@H](C/C(=N\O)c1ccc(=O)n(C)c1)c1ccc(C2CCN(S(N)(=O)=O)CC2)cc1` [Example 510, (R,E)-4-(4-(3-(Hydroxyimino)-3-(1-methyl-6-oxo-1,6-dihydropyridin-3-yl)-1-o-tolylpropyl)phenyl)piperidine-1-sulfonamide]: the EC50 was 48 nM. This lies in the double-digit nanomolar range.
Then `Cc1ccccc1C(C/C(=N\O)c1cc(F)cc(F)c1)c1ccc(-c2cncnc2)cc1` (stereo not drawn) [Example 54, (E)-1-(3,5-Difluoro-phenyl)-3-(4-pyrimidin-5-yl-phenyl)-3-o-tolyl-propan-1-one oxime], with 2580 nM; and `ON=C(CC1c2ccccc2-c2ccccc21)c1ccncc1` (racemic) [Example 61, 2-(9H-Fluoren-9-yl)-1-pyridin-4-yl-ethanone oxime], with 4590 nM.
Then `Cc1cc(/C(CC(c2ccc(C(=O)O)cc2)c2ccc(F)cc2F)=N/O)ccn1` (stereo not drawn) [Example 431, 4-[1-(2,4-Difluoro-phenyl)-3-[(E)-hydroxyimino]-3-(2-methyl-pyridin-4-yl)-propyl]-benzoic acid], with 465 nM; and `Cc1cc(/C(C[C@H](c2ccc(C(=O)N(C)CCO)cc2)c2ccccc2C)=N/O)ccn1` [Example 274, N-(2-Hydroxy-ethyl)-4-[(R)-3-[(E)-hydroxyimino]-3-(2-methyl-pyridin-4-yl)-1-o-tolyl-propyl]-N-methyl-benzamide], with 80 nM.
In turn, `Cc1cc(/C(C[C@H](c2ccc(CC(=O)O)cc2)c2ccc(Cl)cc2C)=N/O)ccn1` [Example 382, {4-[(R)-1-(4-Chloro-2-methyl-phenyl)-3-[(E)-hydroxyimino]-3-(2-methyl-pyridin-4-yl)-propyl]-phenyl}-acetic acid] displayed an EC50 of 41 nM.
Next, `Cc1ccccc1C(C/C(=N\O)c1ccc(=O)n(C)c1)c1ccc(C(=O)N(C)CC(=O)O)cc1` (stereo not drawn) [Example 211, ({4-[3-[(E)-Hydroxyimino]-3-(1-methyl-6-oxo-1,6-dihydro-pyridin-3-yl)-1-o-tolyl-propyl]-benzoyl}-methyl-amino)-acetic acid]: 5980 nM; `Cc1ccccc1[C@@H](C/C(=N\O)c1ccc(=O)n(C)c1)c1ccc(C2CCC(C(=O)O)CC2)cc1` (stereo partly drawn) [Example 487, (S,E)-4-(4-(3-(hydroxyimino)-3-(1-methyl-6-oxo-1,6-dihydropyridin-3-yl)-1-o-tolylpropyl)-phenyl)cyclohexanecarboxylic acid]: 656 nM; `Cc1cc(/C(C[C@H](c2ccc(N[C@H]3C[C@@H](C(=O)O)C3)cc2)c2ccccc2C)=N/O)ccn1` [Example 300, 3-{4-[(R)-3-[(E)-Hydroxyimino]-3-(2-methyl-pyridin-4-yl)-1-o-tolyl-propyl]-phenylamino}-cyclobutanecarboxylic acid]: 55 nM.
In the case of `Cc1cc(Cl)ccc1C(C/C(=N\O)c1ccc(=O)n(C)c1)c1ccc(S(C)(=O)=O)cc1` (single isomer, unassigned; (-)) [Example 333, (−)-(E)-5-(3-(4-Chloro-2-methylphenyl)-1-(hydroxyimino)-3-(4-(methylsulfonyl)phenyl)-propyl)-1-methylpyridin-2(1H)-one], the EC50 was found to be 73 nM.
`Cn1cc(/C(CC(c2ccc(Br)cc2)c2ccc(Cl)cc2F)=N/O)ccc1=O` (single isomer, unassigned; (+)) [Example 239, (+)-5-{3-(4-Bromo-phenyl)-3-(4-chloro-2-fluoro-phenyl)-1-[(E)-hydroxyimino]-propyl}-1-methyl-1H-pyridin-2-one] registered an EC50 of 24 nM.
Then `CCOC(=O)c1ccc(-c2ccc([C@H](C/C(=N\O)c3ccc(=O)n(C)c3)c3ccc(Cl)cc3F)cc2)s1` (single isomer, unassigned) [Example 469, 5-{4-[(+)-1-(4-Chloro-2-fluoro-phenyl)-3-[(E)-hydroxyimino]-3-(1-methyl-6-oxo-1,6-dihydro-pyridin-3-yl)-propyl]-phenyl}-thiophene-2-carboxylic acid ethyl ester], with 420 nM; and `CCn1cc(/C(CC(c2ccc(Br)cc2)c2ccccc2C)=N/O)ccc1=O` (stereo not drawn) [Example 164, 5-{3-(4-Bromo-phenyl)-1-[(E)-hydroxyimino]-3-o-tolyl-propyl}-1-ethyl-1H-pyridin-2-one], with 4 nM.
`Cc1ccccc1C(C/C(=N\O)c1ccncc1)c1ccc(N2CCN(S(C)(=O)=O)CC2)cc1` (stereo not drawn) [Example 136, (E)-3-[4-(4-Methanesulfonyl-piperazin-1-yl)-phenyl]-1-pyridin-4-yl-3-o-tolyl-propan-1-one oxime] gave an EC50 of 24 nM.
In turn, `Cc1ccccc1C(C/C(=N\O)c1ccc(=O)n(C)c1)c1ccc(C(=O)NC(CO)CO)cc1` (stereo not drawn) [Example 304, (E)-N-(1,3-Dihydroxypropan-2-yl)-4-(3-(hydroxyimino)-3-(1-methyl-6-oxo-1,6-dihydropyridin-3-yl)-1-o-tolylpropyl)benzamide] registered an EC50 of 506 nM. This EC50 is about 21-fold higher than that of the molecule before.
Next, `Cc1ncsc1C(C/C(=N\O)c1ccc(=O)n(C)c1)c1ccc(Br)cc1` (stereo not drawn) [Example 330, (E)-5-(3-(4-Bromophenyl)-1-(hydroxyimino)-3-(4-methylthiazol-5-yl)propyl)-1-methylpyridin-2(1H)-one]: 92 nM; `Cn1cc(/C(CC(c2ccc(-c3ccc(CC(=O)O)cc3)cc2)c2ccc(Cl)cc2F)=N/O)ccc1=O` (stereo not drawn) [Example 460, {4′-[1-(4-Chloro-2-fluoro-phenyl)-3-[(E)-hydroxyimino]-3-(1-methyl-6-oxo-1,6-dihydro-pyridin-3-yl)-propyl]-biphenyl-4-yl}-acetic acid]: 421 nM; `ON=C(CC(c1ccccc1)c1ccc(Br)cc1)c1ccnc(Cl)c1` (racemic) [Example 46, 3-(4-Bromo-phenyl)-1-(2-chloro-pyridin-4-yl)-3-phenyl-propan-1-one oxime]: 1360 nM.
Next, `Cc1cc(/C(C[C@H](c2ccc(N3CCOCC3)cc2)c2ccccc2C)=N/O)ccn1` [Example 264, (E,R)-1-(2-Methyl-pyridin-4-yl)-3-(4-morpholin-4-yl-phenyl)-3-o-tolyl-propan-1-one oxime]: 2 nM; `Cc1cc(/C(CC(c2ccc(N3CCN(S(C)(=O)=O)CC3)cc2)c2ccccc2C(F)(F)F)=N/O)ccn1` (stereo not drawn) [Example 137, (E)-3-[4-(4-Methanesulfonyl-piperazin-1-yl)-phenyl]-1-(2-methyl-pyridin-4-yl)-3-(2-trifluoromethyl-phenyl)-propan-1-one oxime]: 38 nM.
Then `Cc1cc(Cl)ccc1C(C/C(=N\O)c1ccc(=O)n(C)c1)c1ccc(S(C)(=O)=O)cc1` (stereo not drawn) [Example 331, (E)-5-(3-(4-chloro-2-methylphenyl)-1-(hydroxyimino)-3-(4-(methylsulfonyl)phenyl)propyl)-1-methylpyridin-2(1H)-one], with 38 nM; and `COCCn1cc(/C(CC(c2ccc(S(C)(=O)=O)cc2)c2ccc(Cl)cc2C)=N/O)ccc1=O` (stereo not drawn) [Example 341, (E)-5-(3-(4-Chloro-2-methylphenyl)-1-(hydroxyimino)-3-(4-(methylsulfonyl)phenyl)-propyl)-1-(2-methoxyethyl)pyridin-2(1H)-one], with 164 nM.
`Cn1cc(/C(CC(c2ccc(C(=O)NCC(F)(F)F)c(F)c2)c2ccccc2Cl)=N/O)ccc1=O` (stereo not drawn) [Example 234, (E)-4-(1-(2-Chlorophenyl)-3-(hydroxyimino)-3-(1-methyl-6-oxo-1,6-dihydropyridin-3-yl)propyl)-2-fluoro-N-(2,2,2-trifluoroethyl)benzamide] displayed an EC50 of 380 nM.
Then `Cc1cc(/C(CC(c2ccc(-c3ccc(S(C)(=O)=O)cc3)cc2)c2ccccc2C(F)(F)F)=N/O)ccn1` (stereo not drawn) [Example 133, (E)-3-(4′-Methanesulfonyl-biphenyl-4-yl)-1-(2-methyl-pyridin-4-yl)-3-(2-trifluoromethyl-phenyl)-propan-1-one oxime], with 114 nM; and `Cc1cc(Cl)ccc1C(C/C(=N\O)c1ccc(=O)n(C)c1)c1ccc(C(=O)O)cc1` (stereo not drawn) [Example 361, 4-[1-(4-Chloro-2-methyl-phenyl)-3-[(E)-hydroxyimino]-3-(1-methyl-6-oxo-1,6-dihydro-pyridin-3-yl)-propyl]-benzoic acid], with 2300 nM; and `Cc1cc(/C(=N/O)C(C)[C@H](c2ccc(Br)cc2)c2ccc(Cl)cc2C)ccn1` (stereo partly drawn) [Example 385, (3R,E)-3-(4-bromophenyl)-3-(4-chloro-2-methylphenyl)-2-methyl-1-(2-methylpyridin-4-yl)propan-1-one oxime], with 698 nM.
`Cc1cc(C(=O)O)ccc1-c1ccc(C(C/C(=N\O)c2ccc(=O)n(C)c2)c2ccc(Cl)cc2Cl)cc1` (single isomer, unassigned) [Example 478, 4′-[(+)-1-(2,4-dichloro-phenyl)-3-[(E)-hydroxyimino]-3-(1-methyl-6-oxo-1,6-dihydro-pyridin-3-yl)-propyl]-2-methyl-biphenyl-4-carboxylic acid] displayed an EC50 of 375 nM. This EC50 is about 1.9-fold lower than that of the molecule before.
Then `CS(=O)(=O)c1ccc(-c2cccc(C(C/C(=N\O)c3ccncc3)c3ccccc3)c2)cc1` (stereo not drawn) [Example 24, (E)-3-(4′-Methanesulfonyl-biphenyl-3-yl)-3-phenyl-1-pyridin-4-yl-propan-1-one oxime], with 2190 nM; and `CCOc1ccc([C@H](C/C(=N\O)c2ccnc(C)c2)c2ccc(Cl)cc2C)cc1` [Example 366, (S)-3-(4-Chloro-2-methyl-phenyl)-3-(4-ethoxy-phenyl)-1-(2-methyl-pyridin-4-yl)-propan-1-one oxime], with 171 nM; and `Cc1ccccc1C(CC(=NO)c1ccncc1)c1ccc(-c2cncnc2)cc1` (racemic) [Example 34, 1-Pyridin-4-yl-3-(4-pyrimidin-5-yl-phenyl)-3-o-tolyl-propan-1-one oxime], with 14 nM.
